Here are results for three compounds from patent US10201536B2, “Methods and pharmaceutical compositions for the treatment of bacterial infections in patients suffering from cirrhosis” (INSERM (INSTITUT NATIONAL DE LA SANTE ET DE LA RECHERCHE …, priority 2015, dated 2019).

The test system of assay [1] is whole blood from cirrhotic patients. Briefly: ROS production, luminol chemiluminescence, whole blood from cirrhotic patients. Type of assay: cell-based, human. On the procedure: (§1) FIG. 5. The TLR7/8 agonist CL097 restored the production of reactive oxygen species by purified neutrophils and in whole blood from patients. ROS production was measured by the highly sensitive luminol-enhanced chemiluminescence assay with purified neutrophils (0.5×10^6 cells/450μl Hanks Balanced salt solution, Panel A) and with whole blood (20 μl in 450 μl PBS containing 0.120 mM calcium, Panel B) from patients with advanced alcohol cirrhosis. Cells were treated for 15 min with the TLR7/8 agonist […], then with 1 μM fMLP (Panel A). Results represent the peak of chemiluminescence response expressed in cpm (mean±SEM of 8 experiments).
(§2) FIG. 6. […] Whole blood (20 μl) from healthy donors (Panel A) and cirrhotic patients (Panel B) were treated in 450 μL PBS containing 0.120 mM calcium), in the absence (control) and presence of R848 or CL097 (0.25-5 μg/ml) for 15 min. Cells were then stimulated with 1 μM fMLP. Results represent the peak of chemiluminescence response induced by fMLP and are expressed in cpm (mean±SEM of 4-6, *: P<0.05).
(§3) To determine whether this treatment improves NADPH oxidase activity, superoxyde production (02-°) was measured by the specific cytochrome C reduction assay, after cell stimulation with the bacterial peptide fMLP. […] Promisingly, these CL097 original properties were also observed in a model of ROS production in whole blood from patients (FIG. 5B).

The test system of assay [2] is whole blood from healthy donors. Briefly: ROS production, luminol chemiluminescence, whole blood from healthy donors. Type of assay: cell-based, human. To be noted: 0.25-5 μg/ml 15 min, then 1 μM fMLP. On the procedure: as §2, §3
Another assay concerns cirrhotic BDL rats. In words: In vivo treatment of cirrhotic bile duct ligated (BDL) rats, ROS production in whole blood. Further details: species or system Wistar female rats. To be noted: 2.2 mg/kg at day 21, parenteral administration, fMLP 1 μM ex vivo. On the procedure:
FIG. 11. In vivo treatment of cirrhotic rats by R848 reverses the deficient ROS production in whole blood. The common bile duct with Wistar female rats was ligated (BDL) under general anesthesia (10 mg Avertin, IP) close to the liver hilum immediately below the bifurcation as described previously (Mohammadi et al, Liver Int. 2009, 29(5):692-700). All surgical procedures were performed under sterile conditions. Blood was collected in Eppendorf tubes (approximately 0.5 ml in 10 mM EDTA) with a 1 inch hypodermic needle inserted into the vessel in the mid ventral surface of the tail. White blood cells were counted using a MS9-5V Analyser Counter (Melet Schloesing Laboratories). At day 21, the cirrhotic BDL rats were treated with R848 (2.2 mg/kg) as reported (McCluskie M J et al, Antiviral Res. 69:77-85, 2006). Control rats were not treated. The production of reactive oxygen species were measured in whole blood at the indicated day. Briefly, ROS production was continueously recorded in a thermostated bioluminometer (Berthold LB940) using 3 blood volumes (0.9, 1.8 and 3.75 μl) incubated at 37° C. in 0.5 ml Hanks balanced salt solution (HBSS) containing 10 μM luminol. Cells were treated with cytochalasin b (0.25 μg/ml) for 5-10 min then stimulated with the bacterial-derived peptide fMet-Leu-he (fMLP, 1 μM). ROS production represents the peak of chemiluminescence response in whole blood. […]

Assay [3] has as its system Gp91phox. In words: gp91phox degradation in healthy PMN treated with purified elastase, western-blot. Type of assay: cell-based, human. To be noted: 1 H at 37° C., 0.1 and 0.5 unit. The protocol:
(§4) FIG. 8. Elastase induces the degradation of gp91phox and p22phox in healthy PMN. (A and B) Western-blot analysis and densitometric quantification of gp91phox and p22phox in healthy PMN treated in the absence or presence of elastase at 0.1 and 0.5 units for 1 hour. (C and D) Western-blot analysis densitometric quantification of gp91phox and […] in healthy PMN treated in the absence or presence of the elastase inhibitor (NEI) at 100 μM for 15 min before stimulation with fMLP (1 μM) for 45 min. (E) Western-blot analysis densitometric quantification of gp91phox in healthy PMN pretreated in the absence or presence of the elastase inhibitor (NEI) at 100 μM for 15 min before incubation for 45 min with a cell-free degranulation supernatant obtained from fMLP (1 μM, 2 min) stimulated PMN. Blots are representative of 4 experiments and densitometric analyses are cumulative and expressed as percentage of the actin level. […] (F) Sensorgrams of the PMN specific binding and dissociation to the anti-gp91phox antibody (7D5) coated to the CM3 sensorchip, analysed with the Biacore X100, as a function of time. […] Data are representative of 3 independent experiments are expressed as resonance unit (RU). (G) Flow cytometry quantification of the Gp91phox expression at the surface of PMN treated or not (Control) with 0.5 unit Elastase at 4° C. […]

For a further assay, the system named is p22phox. Briefly: p22phox degradation in healthy PMN treated with purified elastase, western-blot. Type of assay: cell-based, human. To be noted: 1 H at 37° C., 0.5 unit. On the procedure: as §4
The subject of assay [4] is Gp91phox. In words: Flow cytometry of 7D5 antibody binding to gp91phox at the PMN surface after elastase at 4° C. Type of assay: cell-based, human. To be noted: PMN treated at 4° C. for 1 H, 0.5 unit. On the procedure:
as §4

The subject of assay [5] is Gp91phox. In words: Biacore SPR binding of intact PMN to anti-gp91phox 7D5 antibody. Further details: species or system human. To be noted: PMN pretreated 1 H at 37° C. (0.5 units) and washed. On the procedure: as §4
(SPR reads the build-up and loss of mass on a sensor chip optically.)

Assay [6] has as its system Gp91phox. Briefly: Gp91phox expression by western-blot in neutrophils from cirrhotic patients. Format: cell-based, human. The following applies: patient neutrophils, 2.5 μg/ml, 30 min. The protocol:
(§5) FIG. 3. The TLR7/8 agonist CL097 stimulated Gp91phox RNA production and synthesis in neutrophils from patients with advanced alcohol cirrhosis. Neutrophils from cirrhotic patients were treated in the absence (buffer) or presence of CL097 (2.5 μg/ml) for 30 min at 37° C. and the amount of Gp91phox mRNA was quantified and expressed as percentage of control (Buffer) (Panel A, n=6, *: P<0.05). The expression of Gp91phox was determined by western-blot assays and expressed as percentage±SEM of that of neutrophils of healthy donors (Panel B, n=4, *: P<0.05).
as §3

In assay [7] the test system is neutrophils from healthy donors. Briefly: Superoxide production, cytochrome C reduction assay, healthy neutrophils. Format: cell-based, human. To be noted: 2.5 μg/ml 15 min, then 1 μM fMLP. On the procedure:
(§6) FIG. 4. The TLR7/8 agonist CL097 restored the production of superoxide in neutrophils from patients with advanced alcohol cirrhosis. Neutrophils from healthy donors and patients with advanced alcoholic cirrhosis were treated for 15 min with the TLR7/8 agonist (2.5 μg/ml), then with PBS or 1 μM fMLP. Results represent the mean of superoxide production±SEM expressed in nmole/10^6 cells (n=8, *: P <0.05).
as §3

Assay [8] relates to E coli. Briefly: Bactericidal activity of neutrophils from healthy volunteers against E coli. Type of assay: cell-based, human. On the procedure: (§7) FIG. 7. Impaired bactericidal activity of neutrophils from cirrhotic patients and beneficial effects of the TLR7/8 agonist CL097. (A) Neutrophils from healthy volunteers (Control) and cirrhotic patients were incubated with E coli for 5 min, then treated or not (Buffer) with fMLP (1 μM) for 25 min. (B, C): Neutrophils incubated with bacteria were treated without (PBS) and with CL097 (1 μg/ml) for 2 min before stimulation with fMLP for 23 min. Cells were lysed and the number of bacterial colony was determined and expressed as percentage of that of control resting cells (A, n=6), or % of that of resting cells (PBS) in both cell populations (B, C, n=6); *P<0.05 (Data published in Boussif A et al, J Hepatol. 2016 64:1041-8. doi: 10.1016/j.jhep.2015.12.005. Epub 2015 Dec. 21).
(§8) Thus, TLR7/8 activation may provide beneficial effects on neutrophil host-defense activities in patients with cirrhosis.

For assay [9], the system named is purified neutrophils from patients with advanced alcohol cirrhosis. Briefly: ROS production, luminol-enhanced chemiluminescence, purified patient neutrophils. Type of assay: cell-based, human. On the procedure:
as §1, §3

In assay [10] the test system is E coli. In words: Bactericidal activity of neutrophils from cirrhotic patients against E coli. Type of assay: cell-based, human. On the procedure:
as §7, §8

Assay [11] concerns neutrophils from patients with advanced alcoholic cirrhosis. Briefly: Superoxide production, cytochrome C reduction assay, patient neutrophils. Type of assay: cell-based, human. The following applies: 2.5 μg/ml 15 min, then 1 μM fMLP. On the procedure: as §6, §3
Another assay has as its system Gp91phox mRNA. Briefly: Gp91phox mRNA quantification in neutrophils from cirrhotic patients. Type of assay: cell-based, human. To be noted: patient neutrophils, 2.5 μg/ml, 30 min. On the procedure:
as §5, §3

As to `CCOCc1nc2c(N)nc3ccccc3c2n1CC(C)(C)O` [R848, 4-amino-2-ethoxymethyl-α,α-dimethyl-1H-imidazol[4,5-c]quinoline-1-ethanol], the “improvement of ROS production, potency compared with CL097” value is reported as “more potent than CL097” in assay [1] (whole blood from cirrhotic patients, 0.25-5 μg/ml 15 min, then 1 μM fMLP) and “more potent than CL097” in [2]. The “ROS production in whole blood of cirrhotic rats” value with cirrhotic BDL rats is “reversed the deficient ROS production”.

“elastase: purified elastase, a serine protease produced by neutrophils”: in the assay with Gp91phox [3], the gp91phox degradation entry was “approximately 50%”. For the same compound, the p22phox degradation result in the assay on p22phox is “degradation of p22phox was observed”. The “7D5 antibody binding (FACS scan)” value with Gp91phox [4] is “strongly inhibited”. In the assay with Gp91phox [5], the “PMN binding to 7D5 antibody (SPR)” value was “markedly reduced”.

`CCOCc1nc2c([nH]1)c(N)nc1ccccc12` [CL097]: the “expression of Gp91phox (western-blot)” value with Gp91phox [6] is “restored”. Besides, the “optimal production of superoxide” value in assay [7] is on record as “further increased”. Further, the “ROS production in whole blood (stimulation and potentiation properties)” value in [1] (whole blood from patients) was “also observed”. In addition, the fMLP-induced bacterial killing result is “non significant increase” in the assay with E coli [8] (control neutrophils, 1 μg/ml 2 min before fMLP 23 min) and “strongly potentiated” in the assay on E coli [10] (patients' neutrophils, 1 μg/ml 2 min before fMLP 23 min). Also, the “bacterial killing by agonist alone” value in the assay with E coli [8] (neutrophils from controls, 1 μg/ml) is recorded as “significant bacterial killing”; in the assay on E coli [10] (neutrophils from cirrhotic patients, 1 μg/ml), “significant bacterial killing”. Besides, the “fMLP-induced ROS production” value in assay [9] (agonist 15 min, then 1 μM fMLP) is “strongly potentiate”. Besides, the “ROS production by agonist by itself” value in assay [9] (agonist alone, 15 min) was “weak production of ROS”. Further, the fMLP-induced superoxide production entry in assay [11] is “potentiated fMLP-induced superoxide production to a level similar of that of neutrophils from healthy donors”. Also, in the assay on Gp91phox mRNA, the “Gp91phox mRNA level” value was “increased”.
